Source: patent publication US4033992A, “Novel compounds of the 11-deoxyprostaglandin E3, R3α, and F3β series” (priority 1975, dated 1977)

Assays:
[1] = system: bronchospasms elicited by intravenous injections of 5-hydroxytryptamine, histamine, or acetylchlorine; assay: Bronchodilator activity by the Konzett procedure; type: in vivo, guinea pigs; conditions: Cavia porcellus, three logarithmic cumulative intravenous doses
Description: Bronchodilator activity was determined in guinea pigs against bronchospasms elicited by intravenous injections of 5-hydroxytryptamine, histamine, or acetylchlorine by the Konzett procedure. [See J. Lulling, P. Lievens, F. El Sayed and J. Prignot, Arzneimittel-Forschung, 18,995 (1968).] This activity is expressed as an ED50 determined from the results obtained with three logarithmic cumulative intravenous doses.

ulcers = assay: Indomethacin-induced ulcer assay (anti-ulcer); type: in vivo, Rats; conditions: Indomethacin 20 mg./kg. s.c., score 0-4
Description: Another assay useful for determining potential anti-ulcer agents is carried out in the following manner.
Rats were starved for 48 hours (water was given as libitum). Indomethacin (20 mg./kg. of body weight) was administered by the subcutaneous route and one-half the dose of the test compound was administered by gavage at the same time. After three hours, the second half of the test compound was administered also by gavage. Five hours after the administration of Indomethacin the animals were decapitated and the stomachs removed. The stomachs were washed with distilled water, blotted on gauze, cut along the larger curvature, and the contents rinsed with distilled water. The stomachs were spread out, pinned on a cork and visualized under magnifying glass for ulcers. The critera for scoring of ulcers was as previously reported. [Abdel-Galil et al. Brit. J. Pharmac. Chemotherapy 33:1-14 (1968)].
1-- Petechial hemmorrhage or pin point ulcers
3-- Many ulcers, a few large
4-- Many ulcers, mainly large
Control animals treated with Indomethacin but not test compound consistently give scores of about 2.5-3.5. Control animals treated with neither Indomethacin nor test compound give scores of about 0.5-0.8. Compounds diminishing the control ulcer score by 0.5 unit or more are considered to be active

gastric acid secretion = assay: Gastric acid secretion inhibitory action, modified "Shay rat" procedure; type: in vivo, rats (male, CFE strain); conditions: 3 hours
Description: The novel compounds of the present invention (and those wherein R2 is hydroxy when X is keto and Y is ethylene) are effective inhibitors of gastric acid secretion and of ulcer development in experimental animals, and thus are potentially valuable as agents for the control of gastric acid secretion and of gastric erosion and as anti-ulcer agents. Gastric acid secretion inhibitory action was measured by the "Shay rat" procedure with some modifications as follows.
The rats (male, CFE strain) were starved for 48 hours (water was given ad libitum) to permit evacuation of stomach contents. On the morning of the experiment, under ether anesthesia, the abdominal region was shaved and a midline incision (1-1 1/2") was made with a scapel. With the help of a closed curved hemostate the duodenum was picked up. Upon getting the duodenum into view, fingers were used to pull the stomach through the opening, the stomach was then gently manipulated with fingers to rid the stomach of air and residual matter which were pushed through the pylorus. Two-5 inch sutures were drawn under the pyloric-duodenal juncture. A ligature, at the juncture, was formed with one of the threads. The second ligature was also formed but not tightened.
The test compound or the vehicle, usually 1 ml./100 g. body weight, were injected into the duodenum as close as possible to the first ligature. […]
The abdominal cavity was exposed by cutting with scissors and the esophagus close to the stomach was clamped off with a hemostat, the stomach was removed by cutting above the hemostat (the esophagus was cut) and between the two sutures. […] The supernatant was collected, volume measured and recorded, 2 drops of a phenolphthalein indicator (1% in 95% ethanol) were added and the solution was titrated with 0.02 N NaOH (or with 0.04 N NaOH when large volumes of stomach contents were encountered) to pH 8.4 (because of usual coloring of the stomach contents, phenolphthalein was only used to permit visual indication that the end point was near) and the amount of acid present was calculated. […]

[2] = intraduodenal dose 50 mg./kg. of body weight

SMILES	ED50 ([1]; spasmogenic agent 5-hydroxytryptamine) [µg/kg]	ED50 ([1]; spasmogenic agent acetylcholine) [µg/kg]	ED50 ([1]; spasmogenic agent histamine) [µg/kg]	Score, Treated Animals (ulcer score) (ulcers; total oral dose 12.5 mg./kg. of body weight, Controls 2.7)	Percent Inhibition (gastric acid secretion) (gastric acid secretion; intraduodenal dose 12.5 mg./kg. of body weight) [%]	Percent Inhibition (gastric acid secretion) (gastric acid secretion; [2]) [%]	Score, Treated Animals (ulcer score) (ulcers; total oral dose 50 mg./kg. of body weight, Controls 2.8)
CCCCC[C@H](O)/C=C/[C@H]1CCC(=O)[C@@H]1C/C=C\CCCC(=O)O [l-11-deoxyprostaglandin E2, 11-deoxyprostaglandin E2]	5.2	10	5.2	1.2	42	97	–
CCCCC[C@H](O)/C=C/[C@H]1CC[C@H](O)[C@@H]1C/C=C\CCCC(=O)O [l-11-deoxyprostaglandin F2 α, 11-deoxyprostaglandin F2 α]	–	–	–	–	–	98	1.3
